Like-named read-outs stand apart in the source and are kept apart here.
Legend:
Test in all cases: SelectScreen Kinase Profiling, single point inhibition and IC50 for off-target kinases
Format in all cases: biochemical
off-target kinases [1] = biological target: off-target kinases (Homo sapiens, UniProt Q9Y4K4); settings: MAP4K5 (KHS1), ZLYTE, ATP Km app
off-target kinases [2] = biological target: off-target kinases (Homo sapiens, UniProt Q13177); settings: PAK2 (PAK65), ZLYTE, ATP Km app
off-target kinases [3] = biological target: T1, off-target kinases (Homo sapiens, UniProt Q96PF2); settings: STK22B (TSSK2), ZLYTE, ATP Km app
T1 sequence (Q96PF2 1-358): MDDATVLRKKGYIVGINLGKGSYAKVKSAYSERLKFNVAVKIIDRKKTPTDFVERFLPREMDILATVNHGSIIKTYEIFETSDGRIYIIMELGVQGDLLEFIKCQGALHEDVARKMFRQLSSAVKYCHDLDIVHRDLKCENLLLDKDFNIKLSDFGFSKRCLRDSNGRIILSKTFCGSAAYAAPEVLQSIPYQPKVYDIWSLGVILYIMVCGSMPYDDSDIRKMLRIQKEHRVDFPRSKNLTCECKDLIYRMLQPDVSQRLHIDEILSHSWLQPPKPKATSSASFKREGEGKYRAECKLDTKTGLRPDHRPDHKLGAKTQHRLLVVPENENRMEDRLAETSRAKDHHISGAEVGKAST

off-target kinases [4] = biological target: off-target kinases (Homo sapiens, UniProt Q02763, Y1108F); settings: TEK (TIE2) Y1108F, LanthaScreen Binding
Sequence of off-target kinases (Homo sapiens, UniProt Q02763, Y1108F) (Q02763 23-1124 Y1108F): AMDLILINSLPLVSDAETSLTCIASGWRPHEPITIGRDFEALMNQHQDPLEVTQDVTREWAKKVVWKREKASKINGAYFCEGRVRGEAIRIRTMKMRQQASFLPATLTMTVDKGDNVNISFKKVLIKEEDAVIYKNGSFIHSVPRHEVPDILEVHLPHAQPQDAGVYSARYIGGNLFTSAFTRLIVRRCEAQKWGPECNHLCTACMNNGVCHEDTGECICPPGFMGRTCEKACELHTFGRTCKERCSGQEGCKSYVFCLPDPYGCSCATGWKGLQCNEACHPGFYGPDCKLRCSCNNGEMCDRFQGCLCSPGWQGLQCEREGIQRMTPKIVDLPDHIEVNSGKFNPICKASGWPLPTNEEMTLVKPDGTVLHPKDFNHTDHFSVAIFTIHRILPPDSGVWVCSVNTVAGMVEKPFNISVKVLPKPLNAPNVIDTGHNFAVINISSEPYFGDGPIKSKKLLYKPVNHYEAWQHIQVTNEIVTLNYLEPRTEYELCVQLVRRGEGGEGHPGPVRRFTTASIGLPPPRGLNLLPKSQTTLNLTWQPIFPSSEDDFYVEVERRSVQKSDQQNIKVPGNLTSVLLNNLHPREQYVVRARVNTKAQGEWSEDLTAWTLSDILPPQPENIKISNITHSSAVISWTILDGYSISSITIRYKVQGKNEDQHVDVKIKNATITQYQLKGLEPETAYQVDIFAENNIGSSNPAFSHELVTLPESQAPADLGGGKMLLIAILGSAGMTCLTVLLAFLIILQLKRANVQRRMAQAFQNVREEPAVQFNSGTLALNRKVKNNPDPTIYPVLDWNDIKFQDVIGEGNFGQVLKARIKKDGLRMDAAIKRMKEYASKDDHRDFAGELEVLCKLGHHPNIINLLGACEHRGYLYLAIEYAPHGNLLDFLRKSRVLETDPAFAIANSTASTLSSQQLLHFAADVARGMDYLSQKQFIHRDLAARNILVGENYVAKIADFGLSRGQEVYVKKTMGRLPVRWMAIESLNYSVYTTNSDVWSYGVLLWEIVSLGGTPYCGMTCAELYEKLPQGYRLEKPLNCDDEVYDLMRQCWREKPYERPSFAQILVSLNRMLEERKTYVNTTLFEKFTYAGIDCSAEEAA

off-target kinases [5] = biological target: T2, off-target kinases (Homo sapiens, UniProt Q8TDC3); settings: BRSK1 (SAD1), ATP Km app, ZLYTE
T2 sequence (Q8TDC3 1-778): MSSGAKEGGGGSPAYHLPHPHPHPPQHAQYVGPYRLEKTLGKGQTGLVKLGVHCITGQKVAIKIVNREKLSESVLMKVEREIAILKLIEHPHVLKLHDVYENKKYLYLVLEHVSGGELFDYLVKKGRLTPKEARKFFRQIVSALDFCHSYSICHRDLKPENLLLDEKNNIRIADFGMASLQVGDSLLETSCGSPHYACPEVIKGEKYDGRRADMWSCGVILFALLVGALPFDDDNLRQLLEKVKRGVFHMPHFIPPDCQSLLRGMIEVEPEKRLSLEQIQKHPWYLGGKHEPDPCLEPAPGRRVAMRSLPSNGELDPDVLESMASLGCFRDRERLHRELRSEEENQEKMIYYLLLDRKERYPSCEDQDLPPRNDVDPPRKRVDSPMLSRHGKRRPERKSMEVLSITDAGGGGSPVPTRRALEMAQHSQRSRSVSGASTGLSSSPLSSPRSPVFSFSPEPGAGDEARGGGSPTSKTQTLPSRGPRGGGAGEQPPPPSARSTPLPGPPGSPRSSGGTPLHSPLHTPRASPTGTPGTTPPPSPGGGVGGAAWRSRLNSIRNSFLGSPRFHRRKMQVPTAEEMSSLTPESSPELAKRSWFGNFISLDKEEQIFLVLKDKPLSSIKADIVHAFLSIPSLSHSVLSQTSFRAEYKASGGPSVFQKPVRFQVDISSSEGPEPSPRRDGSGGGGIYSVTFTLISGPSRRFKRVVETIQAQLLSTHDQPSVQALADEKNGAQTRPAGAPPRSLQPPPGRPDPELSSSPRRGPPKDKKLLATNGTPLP

off-target kinases [6] = biological target: off-target kinases (Homo sapiens, UniProt P06239); settings: LCK, ZLYTE, ATP Km app
Sequence of off-target kinases (Homo sapiens, UniProt P06239) (P06239 whole entry): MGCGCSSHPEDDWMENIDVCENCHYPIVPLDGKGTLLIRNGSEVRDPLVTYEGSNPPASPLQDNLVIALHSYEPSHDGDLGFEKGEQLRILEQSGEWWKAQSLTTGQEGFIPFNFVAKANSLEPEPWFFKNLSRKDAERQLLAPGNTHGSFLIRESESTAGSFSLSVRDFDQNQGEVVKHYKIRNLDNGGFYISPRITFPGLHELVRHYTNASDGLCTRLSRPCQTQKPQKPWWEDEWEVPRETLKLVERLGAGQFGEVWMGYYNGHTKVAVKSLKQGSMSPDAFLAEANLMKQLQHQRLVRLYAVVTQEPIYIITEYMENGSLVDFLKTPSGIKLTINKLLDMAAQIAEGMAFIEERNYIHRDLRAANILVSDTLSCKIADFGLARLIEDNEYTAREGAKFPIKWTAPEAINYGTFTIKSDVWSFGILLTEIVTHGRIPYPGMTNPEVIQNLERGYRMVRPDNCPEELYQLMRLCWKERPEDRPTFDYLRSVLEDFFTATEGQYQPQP

off-target kinases [7] = biological target: off-target kinases (Homo sapiens, UniProt P04626)
Sequence of off-target kinases (Homo sapiens, UniProt P04626) (P04626 23-1255): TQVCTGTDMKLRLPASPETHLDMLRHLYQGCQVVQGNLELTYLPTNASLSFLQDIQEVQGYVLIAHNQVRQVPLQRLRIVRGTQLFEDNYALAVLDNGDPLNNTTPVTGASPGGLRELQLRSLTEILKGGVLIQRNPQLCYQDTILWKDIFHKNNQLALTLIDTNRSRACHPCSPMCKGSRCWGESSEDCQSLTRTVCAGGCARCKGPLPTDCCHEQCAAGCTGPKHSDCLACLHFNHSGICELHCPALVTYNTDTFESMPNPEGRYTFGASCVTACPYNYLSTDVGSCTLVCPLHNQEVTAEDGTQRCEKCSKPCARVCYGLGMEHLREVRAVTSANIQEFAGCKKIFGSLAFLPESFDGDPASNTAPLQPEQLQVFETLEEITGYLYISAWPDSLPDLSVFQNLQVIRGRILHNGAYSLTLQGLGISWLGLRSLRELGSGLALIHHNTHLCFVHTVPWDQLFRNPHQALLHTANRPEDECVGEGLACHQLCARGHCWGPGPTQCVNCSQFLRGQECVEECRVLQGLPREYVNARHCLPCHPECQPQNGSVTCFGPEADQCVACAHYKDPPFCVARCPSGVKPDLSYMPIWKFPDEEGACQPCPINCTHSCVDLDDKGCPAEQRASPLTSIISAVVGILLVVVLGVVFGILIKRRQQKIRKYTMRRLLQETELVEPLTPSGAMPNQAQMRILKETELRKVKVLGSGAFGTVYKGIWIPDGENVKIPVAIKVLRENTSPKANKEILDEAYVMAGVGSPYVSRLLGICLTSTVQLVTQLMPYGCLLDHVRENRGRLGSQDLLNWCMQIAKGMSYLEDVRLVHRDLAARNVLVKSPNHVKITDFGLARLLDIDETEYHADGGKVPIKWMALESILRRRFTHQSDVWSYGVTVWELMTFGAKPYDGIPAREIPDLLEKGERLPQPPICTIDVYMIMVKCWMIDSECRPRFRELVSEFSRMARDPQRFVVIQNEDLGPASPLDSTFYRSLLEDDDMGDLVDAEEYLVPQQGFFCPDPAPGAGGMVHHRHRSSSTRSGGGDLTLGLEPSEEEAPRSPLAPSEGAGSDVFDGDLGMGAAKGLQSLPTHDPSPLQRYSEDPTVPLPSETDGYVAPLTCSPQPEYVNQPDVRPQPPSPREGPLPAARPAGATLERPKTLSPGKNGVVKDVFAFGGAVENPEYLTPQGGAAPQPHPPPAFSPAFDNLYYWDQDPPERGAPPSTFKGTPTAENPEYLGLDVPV

Sequence of off-target kinases (Homo sapiens, UniProt Q9Y4K4) (Q9Y4K4 whole entry): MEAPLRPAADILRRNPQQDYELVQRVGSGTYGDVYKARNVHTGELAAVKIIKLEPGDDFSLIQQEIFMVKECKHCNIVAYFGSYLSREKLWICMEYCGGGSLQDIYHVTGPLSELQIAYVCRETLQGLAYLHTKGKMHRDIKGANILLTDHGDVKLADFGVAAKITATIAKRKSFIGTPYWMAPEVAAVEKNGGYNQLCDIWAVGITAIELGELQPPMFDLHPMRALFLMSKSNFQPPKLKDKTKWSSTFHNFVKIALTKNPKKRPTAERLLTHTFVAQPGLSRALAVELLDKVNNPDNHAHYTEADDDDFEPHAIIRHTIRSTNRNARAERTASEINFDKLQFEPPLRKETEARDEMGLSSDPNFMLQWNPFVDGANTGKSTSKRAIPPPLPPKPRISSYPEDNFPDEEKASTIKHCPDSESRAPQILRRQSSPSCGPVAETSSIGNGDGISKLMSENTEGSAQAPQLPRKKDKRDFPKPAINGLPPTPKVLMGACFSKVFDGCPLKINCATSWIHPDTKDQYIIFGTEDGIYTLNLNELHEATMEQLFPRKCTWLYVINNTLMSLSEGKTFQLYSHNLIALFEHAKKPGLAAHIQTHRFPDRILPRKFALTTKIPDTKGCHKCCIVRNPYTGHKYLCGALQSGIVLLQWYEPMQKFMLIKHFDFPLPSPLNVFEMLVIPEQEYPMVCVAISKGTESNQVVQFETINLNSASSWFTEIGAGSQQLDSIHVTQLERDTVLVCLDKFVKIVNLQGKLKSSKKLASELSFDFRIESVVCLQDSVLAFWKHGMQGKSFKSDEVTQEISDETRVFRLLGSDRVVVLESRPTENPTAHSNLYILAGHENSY
Sequence of off-target kinases (Homo sapiens, UniProt Q13177) (Q13177 whole entry): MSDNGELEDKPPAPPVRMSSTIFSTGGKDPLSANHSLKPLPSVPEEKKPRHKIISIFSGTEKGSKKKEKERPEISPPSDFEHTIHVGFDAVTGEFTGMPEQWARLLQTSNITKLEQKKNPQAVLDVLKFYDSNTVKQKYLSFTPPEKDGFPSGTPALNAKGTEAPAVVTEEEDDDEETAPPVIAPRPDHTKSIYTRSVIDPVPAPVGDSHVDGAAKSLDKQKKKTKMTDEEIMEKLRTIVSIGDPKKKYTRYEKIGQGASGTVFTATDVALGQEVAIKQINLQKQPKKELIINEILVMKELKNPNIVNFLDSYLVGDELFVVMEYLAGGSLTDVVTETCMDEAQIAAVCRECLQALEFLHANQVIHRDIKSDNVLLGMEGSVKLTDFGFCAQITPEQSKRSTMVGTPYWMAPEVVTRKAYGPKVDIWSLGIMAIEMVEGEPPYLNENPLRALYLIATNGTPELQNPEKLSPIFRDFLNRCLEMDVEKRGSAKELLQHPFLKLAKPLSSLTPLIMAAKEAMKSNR

## N#Cc1cc(-c2ncnc(Nc3ccc(N4CCN(C5COC5)CC4)cc3)n2)ccc1OC1CCOCC1 [Compound 1, 5-(4-((4-(4-(oxetan-3-yl)piperazin-1-yl)phenyl)amino)-1,3,5-triazin-2-yl)-2-((tetrahydro-2H-pyran-4-yl)oxy)benzonitrile]
off-target kinases [1]; read-out: % Inhibition 1
  inhibition: 11%
off-target kinases [1]; read-out: % Inhibition 2
  inhibition: 12%
off-target kinases [1]; read-out: % Inhibition Avg
  inhibition: 12%
off-target kinases [2]; read-out: % Inhibition 1
  inhibition: 6%
off-target kinases [2]; read-out: % Inhibition 2
  inhibition: -1%
off-target kinases [2]; read-out: % Inhibition Avg
  inhibition: 3%
off-target kinases [3]; read-out: % Inhibition 1
  inhibition: 12%
off-target kinases [3]; read-out: % Inhibition 2
  inhibition: 14%
off-target kinases [3]; read-out: % Inhibition Avg
  inhibition: 13%
off-target kinases [4]; read-out: % Inhibition 1
  inhibition: 53%
off-target kinases [4]; read-out: % Inhibition 2
  inhibition: 52%
off-target kinases [4]; read-out: % Inhibition Avg
  inhibition: 53%
off-target kinases [5]; read-out: % Inhibition 1
  inhibition: 92%
off-target kinases [5]; read-out: % Inhibition 2
  inhibition: 89%
off-target kinases [5]; read-out: % Inhibition Avg
  inhibition: 90%
off-target kinases [6]; read-out: % Inhibition 1
  inhibition: 41%
off-target kinases [6]; read-out: % Inhibition 2
  inhibition: 38%
off-target kinases [6]; read-out: % Inhibition Avg
  inhibition: 40%
off-target kinases [7]; ERBB2 (HER2), ZLYTE, ATP Km app, read-out: % Inhibition 1
  inhibition: 0%
off-target kinases [7]; ERBB2 (HER2), ZLYTE, ATP Km app, read-out: % Inhibition 2
  inhibition: -3%
off-target kinases [7]; read-out: % Inhibition Avg
  inhibition: -1%

From US11572590B2, “Methods for evaluating tumor cell spheroids using 3D microfluidic cell culture device” (Dana-Farber Cancer Institute, Inc., priority 2017, dated 2023)
